The subject of this experiment is Plasmodium berghei. Kind of experiment: Luciferase/luciferin-expressing antifolate-resistant parasites were used to infect a culture of HepG2 cells that were pre-incubated with compounds. Infected hepatocytes emit light due to the luciferase reaction. Assay results are presented as the percent inhibition of light emission compared to control. […]. In kind it is functional. The settings on record: sporozoite; for IC90: read-out: LUCIFERASE INFECTION ASSAY - IC90.

As a reminder, the IC50 is the concentration that gives 50% inhibition. Usually IC90 stands for the concentration needed for an effect of 90%. Take `COc1ccc(C(=O)NCC#Cc2cccc(C(F)(F)F)c2)cn1`: the IC90 is more than 10 µM. For the same molecule, the IC50 (FFLUC_HILL_SLOPE 300, FFLUC_R_SQUARED 0.355, read-out: LUCIFERASE INFECTION ASSAY - IC50) is more than 10 µM.

`O=C1COc2ccc(-c3cs/c(=N\c4cc(S(=O)(=O)N5CCOCC5)ccc4Cl)n3C3CC3)cc2N1`: the IC90 is more than 10 µM. Further, the IC50 (FFLUC_HILL_SLOPE 592, FFLUC_R_SQUARED 0.24, HEPG2TOX_HILL_SLOPE 8.86, HEPG2TOX_R_SQUARED 0.733, PBLUC_HILL_SLOPE 5.17, PBLUC_R_SQUARED 0.255, read-out: LUCIFERASE INFECTION ASSAY - IC50) was found to be 8.04 µM.

As for `O=C1C=CC(=O)N1c1ccc(Cl)cc1Cl`, the IC90 is more than 13.6 µM. Also, the IC50 (FFLUC_HILL_SLOPE 227, FFLUC_R_SQUARED 0.205, read-out: LUCIFERASE INFECTION ASSAY - IC50) was more than 13.6 µM.

As to `O=C(NC(=S)NNc1ncc(C(F)(F)F)cc1Cl)c1ccccc1`, the IC90 was 0.377 µM. Under “FFLUC_HILL_SLOPE 148, FFLUC_R_SQUARED 0.758, HEPG2TOX_HILL_SLOPE 0.501, HEPG2TOX_R_SQUARED 0.887, PBLUC_HILL_SLOPE 13.6, PBLUC_R_SQUARED 0.819, read-out: LUCIFERASE INFECTION ASSAY - IC50”, the IC50 was found to be 0.321 µM.

Turning to `Cc1nc(=O)c2c(C)c(C(=O)OCC(=O)/C=C3\N(C)c4ccccc4C3(C)C)sc2[nH]1`, the concentration for an effect of 90% (IC90) is more than 10 µM. Also, the IC50 (HEPG2TOX_HILL_SLOPE 0.0151, HEPG2TOX_R_SQUARED 0.0709, PBLUC_HILL_SLOPE 3.19, PBLUC_R_SQUARED 0.563, read-out: LUCIFERASE INFECTION ASSAY - IC50) was determined as 6.65 µM.

Turning to `CCCc1ccc(-c2csc(NC(=O)CC(NC(=O)c3ccccc3Cl)c3ccccc3)n2)cc1` (stereo unspecified), the concentration for an effect of 90% (IC90) was more than 10 µM. The IC50 (FFLUC_HILL_SLOPE 390, FFLUC_R_SQUARED 0.412, read-out: LUCIFERASE INFECTION ASSAY - IC50) was more than 10 µM.

As for `CCCOc1ccc(/C=C/C(=O)Nc2ccc(Br)c(C(F)(F)F)c2)cc1OCC`, the IC90 is more than 10 µM. The IC50 (FFLUC_HILL_SLOPE 178, FFLUC_R_SQUARED 0.15, HEPG2TOX_HILL_SLOPE 0.174, HEPG2TOX_R_SQUARED 0.586, PBLUC_HILL_SLOPE 2.73, PBLUC_R_SQUARED 0.361, read-out: LUCIFERASE INFECTION ASSAY - IC50) amounted to 7.97 µM.

For `CN(C(=O)c1cc(-c2ccccc2OCc2ccccc2)ncn1)c1ccccc1`, the IC90 was found to be 5 µM. Also, the IC50 (HEPG2TOX_HILL_SLOPE 0.0237, HEPG2TOX_R_SQUARED 0.016, PBLUC_HILL_SLOPE 4.42, PBLUC_R_SQUARED 0.717, read-out: LUCIFERASE INFECTION ASSAY - IC50) came to 3.04 µM.

In the case of `CCN(CC)c1nc2c3c(nc4c(c3c1C#N)CC(c1ccccc1)O4)NC1(CCCCC1)N2` (stereo unspecified), the concentration for an effect of 90% (IC90) was more than 10 µM. The IC50 (FFLUC_HILL_SLOPE 304, FFLUC_R_SQUARED 0.442, PBLUC_HILL_SLOPE 2.01, PBLUC_R_SQUARED 0.722, read-out: LUCIFERASE INFECTION ASSAY - IC50) was 6.1 µM.

As to `O=C(C1COc2ccccc2C1)N(Cc1ccccc1)c1ccccn1` (stereo unspecified), the IC90 is more than 10 µM. Further, the IC50 (HEPG2TOX_HILL_SLOPE 0.0154, HEPG2TOX_R_SQUARED 0.0147, read-out: LUCIFERASE INFECTION ASSAY - IC50) was more than 10 µM.

In the case of `CCCCCCCc1ccc(NC(=O)Nc2ccc(F)cc2)cc1`, the IC90 was more than 10 µM. In addition, the half-inhibitory concentration (IC50) (FFLUC_HILL_SLOPE 255, FFLUC_R_SQUARED 0.421, PBLUC_HILL_SLOPE 1.52, PBLUC_R_SQUARED 0.706, read-out: LUCIFERASE INFECTION ASSAY - IC50) was found to be 2.49 µM.

Consider `CCOC(=O)c1sc(SCc2ccc(Cl)cc2)c2c1CCCC2=O`, for which the concentration for an effect of 90% (IC90) is more than 8.66 µM. For the same molecule, the IC50 (FFLUC_HILL_SLOPE 175, FFLUC_R_SQUARED 0.438, PBLUC_HILL_SLOPE 6.18, PBLUC_R_SQUARED 0.111, read-out: LUCIFERASE INFECTION ASSAY - IC50) was more than 8.66 µM.

For the molecule `O=C1C(=C2NC(c3cccc(C(F)(F)F)c3)=CS2)Sc2ccccc21`, the IC90 came out at 3.25 µM. Also, the IC50 (FFLUC_HILL_SLOPE 302, FFLUC_R_SQUARED 0.711, PBLUC_HILL_SLOPE 16.1, PBLUC_R_SQUARED 0.464, read-out: LUCIFERASE INFECTION ASSAY - IC50) was 2.83 µM.

Take `Cc1cc(C(=O)C(C)OC(=O)CCc2nc(=O)c3ccccc3[nH]2)c(C)n1-c1ccc(Cl)cc1` (stereo unspecified): the IC90 was more than 10 µM. In addition, the IC50 (HEPG2TOX_HILL_SLOPE 0.024, HEPG2TOX_R_SQUARED 0.0218, read-out: LUCIFERASE INFECTION ASSAY - IC50) is more than 10 µM.

Consider `O=[N+]([O-])c1ccc(S(=O)(=O)c2ccc(C(F)(F)F)cn2)nc1`, for which the IC90 amounted to 6.39 µM. Further, the IC50 (FFLUC_HILL_SLOPE 150, FFLUC_R_SQUARED 0.542, HEPG2TOX_HILL_SLOPE 3, HEPG2TOX_R_SQUARED 0.956, PBLUC_HILL_SLOPE 6.23, PBLUC_R_SQUARED 0.341, read-out: LUCIFERASE INFECTION ASSAY - IC50) came to 4.49 µM.

For `CCCCCCN(C(=O)Cn1ccsc1=N)c1nc(-c2ccccc2)cs1`, the IC90 was more than 10 µM. Further, for the setting “FFLUC_HILL_SLOPE 258, FFLUC_R_SQUARED 0.634, read-out: LUCIFERASE INFECTION ASSAY - IC50”, the IC50 is more than 10 µM.

Regarding `CC(C)(C)c1cc(-c2csc(CS(=O)(=O)Cc3cccc(C(F)(F)F)c3)n2)cc(C(C)(C)C)c1O`, the IC90 was more than 6.28 µM. Besides, the IC50 (FFLUC_HILL_SLOPE 261, FFLUC_R_SQUARED 0.0541, PBLUC_HILL_SLOPE 0.448, PBLUC_R_SQUARED 0.195, read-out: LUCIFERASE INFECTION ASSAY - IC50) is more than 6.28 µM.

As for `FC(F)(F)c1cc(NC(=S)N2CCC(CCCC3CCN(C(=S)Nc4cc(C(F)(F)F)cc(C(F)(F)F)c4)CC3)CC2)cc(C(F)(F)F)c1`, the IC90 is more than 4.38 µM. The IC50 (FFLUC_HILL_SLOPE 260, FFLUC_R_SQUARED 0.348, HEPG2TOX_HILL_SLOPE 8.4, HEPG2TOX_R_SQUARED 0.678, PBLUC_HILL_SLOPE 17.9, PBLUC_R_SQUARED 0.0888, read-out: LUCIFERASE INFECTION ASSAY - IC50) was more than 4.38 µM.

As for `COc1ccc(CN2C(=O)c3ccccc3C(C=NNC(=O)Cc3cccn3C)C2=O)cc1` (stereo unspecified), the concentration for an effect of 90% (IC90) turned out to be 4.28 µM. Under “FFLUC_HILL_SLOPE 212, FFLUC_R_SQUARED 0.138, HEPG2TOX_HILL_SLOPE 1.34, HEPG2TOX_R_SQUARED 0.84, PBLUC_HILL_SLOPE 13.5, PBLUC_R_SQUARED 0.236, read-out: LUCIFERASE INFECTION ASSAY - IC50”, the IC50 was 3.64 µM.

On to `COc1cccc(C(c2c(-c3ccccc3)n(O)c3ccccc23)N2CCOCC2)c1` (stereo unspecified), for which the IC90 was more than 10 µM. Further, the IC50 (FFLUC_HILL_SLOPE 161, FFLUC_R_SQUARED 0.573, read-out: LUCIFERASE INFECTION ASSAY - IC50) was more than 10 µM.

On to `O=C(COC(=O)c1ccccc1NCCO)NC1c2ccccc2-c2ccccc21`, for which the IC90 stood at 4.07 µM. The IC50 (FFLUC_HILL_SLOPE 129, FFLUC_R_SQUARED 0.809, HEPG2TOX_HILL_SLOPE 1.96, HEPG2TOX_R_SQUARED 0.833, PBLUC_HILL_SLOPE 15.2, PBLUC_R_SQUARED 0.28, read-out: LUCIFERASE INFECTION ASSAY - IC50) stood at 3.52 µM.

Take `C=CCN(c1ccccc1Cl)S(=O)(=O)c1cc(C(=O)NCc2cn3cc(Cl)ccc3n2)ccc1Cl`: the IC90 was more than 10 µM. Also, for the setting “FFLUC_HILL_SLOPE 155, FFLUC_R_SQUARED 0.0996, read-out: LUCIFERASE INFECTION ASSAY - IC50”, the 50% inhibitory concentration (IC50) is more than 10 µM.

Consider `CCCNC(=O)c1c(NC(=O)c2cccc(Cl)c2)nc2ccccn12`, for which the IC90 is 1.11 µM. Moreover, the IC50 (FFLUC_HILL_SLOPE 126, FFLUC_R_SQUARED 0.738, HEPG2TOX_HILL_SLOPE 0.804, HEPG2TOX_R_SQUARED 0.952, PBLUC_HILL_SLOPE 15.4, PBLUC_R_SQUARED 0.753, read-out: LUCIFERASE INFECTION ASSAY - IC50) came out at 0.96 µM.

As to `CCCCNC(=O)c1c(NC(=O)c2cccc(C)c2)nc2ccc(C)cn12`, the IC90 is 3.17 µM. Also, the IC50 (FFLUC_HILL_SLOPE 134, FFLUC_R_SQUARED 0.564, HEPG2TOX_HILL_SLOPE 2.72, HEPG2TOX_R_SQUARED 0.791, PBLUC_HILL_SLOPE 3.36, PBLUC_R_SQUARED 0.556, read-out: LUCIFERASE INFECTION ASSAY - IC50) turned out to be 1.65 µM.

Regarding `CC(=O)Nc1cccc(-c2cn3c(-c4ccc(Oc5ccccc5)cc4)cnc3cn2)c1`, the IC90 is more than 7.85 µM. Also, where the note is “HEPG2TOX_HILL_SLOPE 0.0216, HEPG2TOX_R_SQUARED 0.0103, PBLUC_HILL_SLOPE 2.46, PBLUC_R_SQUARED 0.352, read-out: LUCIFERASE INFECTION ASSAY - IC50”, the IC50 is more than 7.85 µM.

Turning to `O=C(c1cc(F)cc(F)c1)N1[C@@H]2CC[C@@H](C2)[C@H]1c1nc2c(OCCC3CCCCC3)cccc2[nH]1`, the IC90 is more than 10 µM. Further, where the note is “FFLUC_HILL_SLOPE 146, FFLUC_R_SQUARED 0.488, HEPG2TOX_HILL_SLOPE 10.5, HEPG2TOX_R_SQUARED 0.576, PBLUC_HILL_SLOPE 12.2, PBLUC_R_SQUARED 0.352, read-out: LUCIFERASE INFECTION ASSAY - IC50”, the IC50 turned out to be 9.64 µM.

Take `CCn1c(-c2ccccc2)c(C(=O)COc2ccc(F)cc2Br)c2ccccc21`: the IC90 is more than 10 µM. For the same molecule, the IC50 (FFLUC_HILL_SLOPE 1400, FFLUC_R_SQUARED 0.245, read-out: LUCIFERASE INFECTION ASSAY - IC50) is more than 10 µM.

For `N#Cc1c(N2CCCCCC2)nc(N)c2c(N)nc3c(c12)CC(=O)N3c1ccc(F)cc1`, the IC90 came out at 1.19 µM. The IC50 (FFLUC_HILL_SLOPE 141, FFLUC_R_SQUARED 0.168, PBLUC_HILL_SLOPE 30.3, PBLUC_R_SQUARED 0.605, read-out: LUCIFERASE INFECTION ASSAY - IC50) worked out at 1.1 µM.

The values are drawn from ChEMBL document CHEMBL4483862, “Open-source discovery of chemical leads for next-generation chemoprotective antimalarials” (2018).
